Test results published in BindingDB's records for doi:10.1021/jm00168a025 (State University of New York, 1990).

Biological target: Squalene monooxygenase (Sus scrofa)
Assay: Inhibition of pig liver squalene epoxidase

Row | IC50 [µM] | SMILES
1 | 100 | CC(C)=CCC/C(C)=C/CC/C(C)=C/CC/C=C(\C)CCCO
2 | > 400 | CC(C)=CCC/C(C)=C/CC/C(C)=C/CC/C=C(\C)CC/C=C(\C)CC/C=C(\C)CCCO
3 | 4 | CC(C)=CCC/C(C)=C/CC/C(C)=C/CC/C=C(\C)CC/C=C(\C)CCCO
4 | > 400 | CC(C)=CCC/C(C)=C/CC/C(C)=C/CCCO
5 | 4 | CC(C)=CCC/C(C)=C/CC/C(C)=C/CC/C=C(\C)CC/C=C(\C)CCCCO
